Measured values published in patent US9248089B2, “Peptide-based compounds as inhibitors of neurotransmitter secretion” (GRF (WUHAN) BIOTECHNOLOGY INC., priority 2011, dated 2016).
Peptide text beside a SMILES is read from it.

Tested on: HEK293 cells
Test: HEK293 cell assay (evaluation of biological degradation, HPLC of supernatant)
Assay type: in vitro ADME, Human
Settings: for Degradation after incubation with HEK293 cells: 37° C., 1.0×10^6 HEK293 cells; for Degradation after incubation with HEK293 cells / Degradation pattern/profile compared with another compound: HPLC condition D; for Degradation pattern/profile compared with another compound: incubation with HEK293 cells
Method: The Human Embryonic Kidney 293 (HEK293) cells may be cultured in suspension. After the HEK293 cells are collected, the cells may be washed 3 times with PBS buffer before the assay.
The stock solution of peptide-based compounds may be made by dissolving the compound in PBS buffers or in DMSO. Other solutions or solvents may be used to dissolve the peptide-based compounds for this assay.
2. Add 10 μL of the stock solution of the peptide-based compound prepared above so that the final concentration of the peptide-based compound is around 1/10th of that of the stock.
3. Incubate the resulting mixture at 37° C. for 3, 5, 10, 20, or 30 min.
4. Remove the cells by centrifugation.
5. Collect an aliquot of the supernatant solution (20 μL) and loaded it onto a reverse-phase HPLC column (3.9×150 Nova-Pak C18, Waters, Mass., USA) on an HPLC system (125 solvent module, System Gold, Beckman, Calif., USA). Peptide peaks may be detected at the wavelength of 220 nm (Diode Array Detector module 168, Beckman, Calif., USA).

Compound	Degradation after incubation with HEK293 cells (3 min incubation)	Detectable Compound 2 as degradation intermediate (30 min incubation with HEK293 cells)	Degradation after incubation with HEK293 cells (30 min incubation)	Detectable Compound 2 as degradation intermediate (5 min incubation with HEK293 cells)	Degradation after incubation with HEK293 cells (5 min incubation)	Degradation after incubation with HEK293 cells (10 min incubation)	Degradation pattern/profile compared with another compound
COC(=O)CC[C@H](NC(C)=O)C(=O)N[C@@H](CCC(=O)OC)C(=O)N[C@@H](CCSC)C(=O)N[C@@H](CCC(N)=O)C(=O)N[C@@H](CCCNC(=N)N)C(=O)N[C@@H](CCCNC(=N)N)C(N)=O [Compound 1, Ac-Glu(OMe)-Glu(OMe)-Met-Gln-Arg-Arg-NH2] (Ac-E(OMe)E(OMe)MQRR-NH2)	degraded to Compound 2 and at least one new fragment	No Compound 2 was detectable	fully degraded to at least one new fragment				
COC(=O)CC[C@H](NC(C)=O)C(=O)N[C@@H](CCC(=O)OC)C(=O)N[C@@H](CCSC)C(=O)N[C@@H](CCC(N)=O)C(=O)N[C@@H](CCCNC(=NC(=O)OC(C)(C)C)NC(=O)OC(C)(C)C)C(=O)N[C@@H](CCCNC(=NC(=O)OC(C)(C)C)NC(=O)OC(C)(C)C)C(N)=O [Compound 3, Ac-Glu(OMe)-Glu(OMe)-Met-Gln-Arg(Boc)2-Arg(Boc)2-NH2]				did not produce detectable intermediacy of Compound 2	degraded to at least two fragments	completed degraded to the two fragments	degraded in the same pattern as Compound 2
Ac-EEMQRR-NH2 [Compound 2, Ac-Glu-Glu-Met-Gln-Arg-Arg-NH2, reference compound]						degraded to at least two fragments	did not give the same degradation pattern as Compound 1
